Results as given in US10591461B2, “Method of drug design and optimisation utilizing stereochemical mimicry” (The Trustees of the University of Pennsylvania, priority 2016, dated 2020).
Ends that are not written are not given here.

Legend:
neuro-2a cells = assay: Confocal microscopy imaging of neuronal cells (neurite outgrowth, qualitative); assay type: cell-based, Mouse; conditions: for number of projections (increase from no treatment): confocal images, FIG. 7
Description: (§1) Once the three compounds were synthesized the neurite outgrowth assay was used in order to determine the effectiveness of the aza-proline derivatives in comparison with the Glyx-13. Mouse neuroblastoma cells (Neuro-2a cells) were used in order to measure the increase in neurite growth between untreated cells and those treated with the test compounds. A plate reader assay was used where 9,000 cells/cm^2 were treated with the compounds at 0.01, 0.10, and 1.00 μM concentrations for 48 hours. Several controls were used as well, including wells with no cell and compound, cells with no compound (just water), and wells with no cells and water. After treatment with the compounds, the cells were washed in DPBS buffer and treated with cell viability indicator and a membrane stain for 20 minutes before being washed again and treated with a background suppression dye. The plate reader assay was inconclusive for some of the concentrations of the compounds, but the 0.10 μM data is promising. (FIG. 6)

[1] = test system: Mouse neuroblastoma cells (Neuro-2a cells); assay type: cell-based; conditions: 0.10 μM, 48 hours, vs untreated cells; FIG. 6; preliminary data
Description: as §1

| Compound | number of projections (increase from no treatment) (neuro-2a cells) | size of the neurites (membrane stain) [1] | effectiveness compared with control compound Glyx-13 (neuronal projections and dendrite length) (neuro-2a cells; confocal microscope data) |
| --- | --- | --- | --- |
| C[C@@H](O)[C@H](N)C(=O)N1CCCN1C(=O)N1CCC[C@H]1C(=O)N[C@H](C(N)=O)[C@@H](C)O [Glyx-1] | even more noticeable |  |  |
| Thr-Pro-Pro-Thr-NH2 (TPPT-NH2) [Glyx-13, tetrapeptide, parent and control compound, NMDA receptor glycine-site partial agonist, reference compound] | significant increase |  |  |
| C[C@@H](O)[C@H](N)C(=O)N1CCC[C@H]1C(=O)N1CCCN1C(=O)N[C@H](C(N)=O)[C@@H](C)O [Glyx-2] | even more noticeable | significant increase | significantly more effective |
